For assay [1], the system named is β-glucuronidase activity in live, cultured bacterial cells. In words: β-glucuronidase activity in live, cultured bacterial cells (PNPG substrate). The class given is cell-based. The following applies: 2 hour incubation.
For assay [2], the target named is E. coli GUS (Escherichia coli (strain K12), UniProt P05804). To be noted: 30 minutes incubation, then NAD+ and UDH.
From the text: Addition of UDH and nicotinamide adenine dinucleotide (NAD+) to a reaction solution containing free GA results in the catalysis of free GA to D-glucurate and the concomitant reduction of NAD+ to NADH. NADH can be detected photometrically by monitoring absorbance at 340 nm (FIG. 4).
Assay [3] concerns the target purified E. coli GUS (Escherichia coli (strain K12), UniProt P05804). In words: PNPG-PNP GUS cleavage assay, purified E. coli GUS. The assay is classed as biochemical. The following applies: preincubation one minute to four hours.
The subject of assay [4] is GUS activity in live E. coli. Put plainly: PNPG-PNP GUS cleavage assay, live E. coli.
For assay [5], the target named is Purified bacterial β-glucuronidases (Escherichia coli, UniProt P05804). The assay is classed as biochemical. To be noted: PNPG substrate, 5 nM enzyme. The source says: Successful drug candidate compounds were subjected to numerous biochemical and cellular assays. Purified bacterial β-glucuronidases were challenged with compounds to determine inhibition properties in a standard, robust activity assay, utilizing p-nitrophenyl glucuronide (PNPG) as the enzymatic substrate.

Setting [6] is: parent compound, read-out: Cell Based Inhibition IC50 (nM) Parent.

The values that follow come from patent US12017994B2 (SYMBERIX, INC., priority 2017, dated 2024).

Values joined by “and” are separate entries in the source; they are usually repeats but may differ in a detail not shown here. Equal values may be shown once. “Also recorded” adds a separate entry of the source. Read-outs that look alike come from different tables or passages of the source.

E. coli GUS, sequence (P05804 whole entry, looked up): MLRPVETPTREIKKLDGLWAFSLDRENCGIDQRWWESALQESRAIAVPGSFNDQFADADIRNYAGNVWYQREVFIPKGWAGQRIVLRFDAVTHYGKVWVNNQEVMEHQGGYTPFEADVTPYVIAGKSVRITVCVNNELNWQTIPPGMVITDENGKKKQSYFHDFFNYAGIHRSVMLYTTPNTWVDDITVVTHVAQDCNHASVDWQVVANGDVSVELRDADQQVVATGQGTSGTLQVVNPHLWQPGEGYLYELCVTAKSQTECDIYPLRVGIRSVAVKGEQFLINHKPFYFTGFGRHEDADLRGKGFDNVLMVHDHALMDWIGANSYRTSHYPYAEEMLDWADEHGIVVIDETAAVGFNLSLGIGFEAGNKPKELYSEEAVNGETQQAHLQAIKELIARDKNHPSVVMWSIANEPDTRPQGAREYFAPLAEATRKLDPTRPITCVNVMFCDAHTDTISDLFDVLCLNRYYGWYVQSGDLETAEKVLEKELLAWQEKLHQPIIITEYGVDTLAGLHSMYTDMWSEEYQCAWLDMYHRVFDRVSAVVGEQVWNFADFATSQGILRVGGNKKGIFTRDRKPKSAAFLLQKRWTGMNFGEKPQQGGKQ
purified E. coli GUS, sequence (P05804 whole entry, looked up): as above

As for `CCOc1ccc(NC(=O)N(CCO)Cc2cc3cc(C)cc(C)c3[nH]c2=O)cc1`, the IC50 (commonly the concentration needed to halve the response being measured) in assay [1] (setting [6]) is 890 nM.

For `CCOc1ccc(NC(=S)N(CCO)Cc2cc3cc(C)cc(C)c3[nH]c2=O)cc1` [Inh1, reference compound], the IC50 in assay [1] (setting [6]) was 890 nM.

For `CCOc1ccc(NC(=S)N(CCO[C@@H]2O[C@H](C(=O)O)[C@@H](O)[C@H](O)[C@H]2O)Cc2cc3cc(C)cc(C)c3[nH]c2=O)cc1` [Inh1-G], the IC50 in assay [1] (glucuronide of the compound, read-out: Cell Based Inhibition IC50 (nM) Glucuronide) was 8.8 nM; in assay [3], ~1000 nM; in assay [4] (read-out: IC50 in live E. coli, after 4 hr incubation), 1 nM. For the same compound, the “free GA / NADH formation after incubation with E. coli GUS (cleavage by GUS)” value in assay [2] is recorded as “No free GA was detected; also recorded: does not cleave”. Further, the “increase in potency in live E. coli” value in assay [4] (1-min pre-incubation) is “approximately 20 fold”; in assay [4] (2-hr pre-incubation), ~100 fold; in assay [4] (4-hr pre-incubation) it was ~1000 fold and > 1000 fold.

Regarding `Cc1cc(C)c2[nH]c(=O)c(CN(CCO)C(=O)Nc3ccccc3-c3ccccc3)cc2c1` [Ref #14′, 1-[(6,8-dimethyl-2-oxo-1H-quinolin-3-yl)methyl]-1-(2-hydroxyethyl)-3-(2-phenylphenyl)urea], in assay [5], the IC50 is 6160 nM and 6440 nM.

For `Cc1cc(C)c2[nH]c(=O)c(CN(CCO)C(=O)Nc3cccnc3)cc2c1` [Ref #18′, 1-[(6,8-dimethyl-2-oxo-1H-quinolin-3-yl)methyl]-1-(2-hydroxyethyl)-3-(3-pyridyl)urea], in assay [5], the IC50 is > 50000 nM.

Turning to `Cc1cc(C)c2[nH]c(=O)c(C(C)N(CCO)C(=O)Nc3ccccc3C(C)C)cc2c1` (stereo not shown) [Ref #29′, 1-[1-(6,8-dimethyl-2-oxo-1H-quinolin-3-yl)ethyl]-1-(2-hydroxyethyl)-3-(2-isopropylphenyl)urea], the IC50 in assay [5] is 6440 nM.

`Cc1cc(C)c2[nH]c(=O)c(C(C)N(CCO)C(=O)Nc3ccc(F)cc3I)cc2c1` (stereo not shown) [Ref #30′, 1-[1-(6,8-dimethyl-2-oxo-1H-quinolin-3-yl)ethyl]-3-(4-fluoro-2-iodo-phenyl)-1-(2-hydroxyethyl)urea] gave a concentration for half-maximal inhibition (IC50) in assay [5] of 13000 nM.

In the case of `Cc1cc(C)c2[nH]c(=O)c(C(C)N(CCO)C(=O)Nc3ccccc3C)cc2c1` (stereo not shown) [Ref #31′, 1-[1-(6,8-dimethyl-2-oxo-1H-quinolin-3-yl)ethyl]-1-(2-hydroxyethyl)-3-(o-tolyl)urea], the IC50 in assay [5] is > 50000 nM.

For `COc1ccc(NC(=O)N(CCO)C(C)c2cc3cc(C)cc(C)c3[nH]c2=O)cc1` (stereo not shown) [Ref #34′, 1-[1-(6,8-dimethyl-2-oxo-1H-quinolin-3-yl)ethyl]-1-(2-hydroxyethyl)-3-(4-methoxyphenyl)urea], the IC50 in assay [5] was > 50000 nM.

As to `Cc1cccc(NC(=O)N(CCO)Cc2cc3cc(C)cc(C)c3[nH]c2=O)c1` [Ref #38′, 1-[(6,8-dimethyl-2-oxo-1H-quinolin-3-yl)methyl]-1-(2-hydroxyethyl)-3-(m-tolyl)urea], 1660 nM corresponded to half-maximal inhibition in assay [5] (IC50).

Regarding `Cc1cc(C)c2[nH]c(=O)c(CN(CCO)C(=O)Nc3cccc(C(C)C)c3)cc2c1` [Ref #41′, 1-[(6,8-dimethyl-2-oxo-1H-quinolin-3-yl)methyl]-1-(2-hydroxyethyl)-3-(3-isopropylphenyl)urea], in assay [5], half-maximal inhibition (IC50) was put at 6730 nM.

The compound `C#Cc1cc(F)ccc1NC(=O)N(CCO)Cc1cc2cc(C)cc(C)c2[nH]c1=O` [Ref #45′, 1-[(6,8-dimethyl-2-oxo-1H-quinolin-3-yl)methyl]-3-(2-ethynyl-4-fluoro-phenyl)-1-(2-hydroxyethyl)urea] displayed an IC50 in assay [5] of 1100 nM.

Take “chenodeoxycholate-glucuronide [reference compound]”: the “free GA / NADH formation after incubation with E. coli GUS (cleavage by GUS)” value in assay [2] is recorded as “detected only for the positive control”.
